Patent EP4635944A1, “2-AZABICYCLO[3.1.1]HEPTANE COMPOUND” (Daiichi Sankyo Company, Limited, priority 2022, dated 2024)
Each block holds one compound with its values, some of them ahead of it.

Legend:
[1] = target: T1, human OX2R (Homo sapiens, UniProt O43614); assay: Evaluation of OX2R agonist activity (intracellular calcium, CHO-K1 cells with forced expression of human OX2R); assay type: cell-based; conditions: CHO-K1 cells expressing human OX2R; 100% = 5 µM of the reference compound; read-out: hOX2R EC50
T1 construct: host or cells: CHO-K1 (Chinese Hamster Ovary K1)
T1 sequence (O43614 1-444): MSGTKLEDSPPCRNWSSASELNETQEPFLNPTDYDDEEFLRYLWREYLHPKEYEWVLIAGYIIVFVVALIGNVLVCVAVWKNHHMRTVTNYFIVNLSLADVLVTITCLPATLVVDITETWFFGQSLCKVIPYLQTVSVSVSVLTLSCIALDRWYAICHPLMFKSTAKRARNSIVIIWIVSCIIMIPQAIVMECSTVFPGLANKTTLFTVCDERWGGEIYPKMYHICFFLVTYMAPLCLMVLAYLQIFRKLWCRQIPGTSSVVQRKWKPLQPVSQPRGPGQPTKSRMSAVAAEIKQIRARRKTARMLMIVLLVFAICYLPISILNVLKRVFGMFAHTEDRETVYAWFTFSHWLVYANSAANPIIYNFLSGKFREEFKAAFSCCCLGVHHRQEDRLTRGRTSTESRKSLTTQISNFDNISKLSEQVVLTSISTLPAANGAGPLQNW
Outline: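 Cells seeded 7500/well, cultured 24 h, loaded with Fluo 4-AM (2.5 µg/mL final) plus probenecid for 30 min. Calcium response read as 480/540 nm excitation ratio; max–min signal 5–7 s after compound addition, normalized to buffer (0%) and 5 µM reference agonist (100%). EC50 from concentration series; 0.5% DMSO final.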

[2] = Evaluation of ERM production (GSH adduct detection in human liver microsomes); assay type: in vitro ADME; conditions: test compound 500 µM, human liver microsomes 2 mg/mL, GSH/SI-GSH, 37°C for 60 minutes; negative = no metabolite GSH adduct pair peak
Experimental: Evaluation of ERM production from OX2R agonist
The test compound (final concentration was 500 µM, dissolved in DMSO/acetonitrile = 1/9), pooled human liver microsomes (final concentration was 2 mg/mL), L-glutathione reduced (GSH, final concentration was 0.5 mM), potassium phosphate buffer (pH 7.4, final concentration was 100 mM), and stable isotope labeled GSH (SI-GSH, final concentration was 0.5 mM) were admixed and preincubated at 37°C for 3 minutes. Thereafter, a mixed solution of glucose-6-phosphate (final concentration was 25 mM), β-nicotinamide adenine dinucleotide phosphate (final concentration was 0.25 mM), glucose-6-phosphate dehydrogenase (final concentration was 2 U/mL), and magnesium chloride (final concentration was 10 mM) was added, and incubation was performed at 37°C for 60 minutes. After the incubation, the reaction was stopped by adding a 2-fold volume of acetonitrile. A portion of the supernatant after centrifugation (about 1200 × g, 4°C, 15 minutes) was injected into a liquid chromatograph quadrupole time-of-flight mass spectrometer (Q-Tof) for analysis. The mass number of metabolites, GSH adduct and SI-GSH adduct, predicted from the chemical structural formula of the test compound was calculated, and the presence of the corresponding peaks in the measurement sample was checked. Peaks with the same retention time and approximately equal peak area of the detected peaks of the metabolites, GSH adduct and SI-GSH adduct, were extracted as pair peaks. The presence of a pair peak determined to be a metabolite GSH adduct was considered positive for ERM production potential, whereas the absence of such a peak was considered negative for ERM production potential.

[3] = Evaluation of metabolic stability in human liver microsomes; assay type: in vitro ADME; conditions: for metabolic stability compared to the corresponding compounds that were not deuterated: human liver microsomes, 30 minutes, deuterated at specific positions; for Human metabolic stability Residual ratio (%): test compound 1 µM, human liver microsomes 0.5 mg/mL, 30 minutes at 37°C
Experimental: Evaluation of metabolic stability of OX2R agonist
The test compound (final concentration was 1 µM, dissolved in DMSO/acetonitrile = 1/99), pooled human liver microsomes (final concentration was 0.5 mg/mL), and sodium phosphate buffer (pH 7.4, final concentration was 100 mM) were admixed and preincubated at 37°C for 15 minutes. Thereafter, a mixed solution of glucose-6-phosphate (final concentration was 10 mM), glucose-6-phosphate dehydrogenase (final concentration was 1 U/mL), and magnesium chloride (final concentration was 3.3 mM) was added and a certain amount of the mixture was collected. Then, an acetonitrile/methanol mixed solution (75/25, v/v) containing a 4.5-fold volume of internal standard substances (final concentrations: phenacetin: 1 ng/mL, niflumic acid: 15 ng/mL, furosemide: 20 ng/mL) was added to stop the reaction (0 min sample). Subsequently, β-nicotinamide adenine dinucleotide phosphate (final concentration was 1 mM) was added, and after 30 minutes of incubation at 37°C, a certain amount of the mixture was collected, to which an acetonitrile/methanol mixed solution (75/25, v/v) containing a 4.5-fold volume of the internal standard substances was added to stop the reaction (30 min sample). For both samples, a portion of the supernatant after centrifugation (about 1200 × g, 4°C, 15 minutes) was injected into a liquid chromatograph tandem quadrupole mass spectrometer (LC-MS/MS) for analysis. The metabolic stability was evaluated by comparing the test compound/internal standard substance ratio of the 30 min sample with the 0 min sample and calculating the residual ratio of the test compound. […]

Compound: [2H]C([2H])([2H])[C@@]([2H])(O)C(=O)N1C2CC(C2)[C@H](NS(C)(=O)=O)[C@@H]1Cc1cc(F)cc(-c2ccccc2)c1F [Example 88, N-{(3S,4S)-3-[(2,5-Difluoro[biphenyl]-3-yl)methyl]-2-[(2R)-2-hydroxy(^2H4)propanoyl]-2-azabicyclo[3.1.1]heptan-4-yl}methanesulfonamide]
EC50 [1]: 43 nM
ERM production potential [2]: negative
metabolic stability compared to the corresponding compounds that were not deuterated [3]: improved metabolic stability
Human metabolic stability Residual ratio (%) [3]: 59%

Compound: CC(C)(O)C(=O)N1C2CC(C2)C(NS(C)(=O)=O)C1Cc1cc(F)cc(-c2ccccc2)c1F (single isomer, unassigned) [Example 59, N-[(3S,4S)-3-[(2,5-Difluoro[biphenyl]-3-yl)methyl]-2-(2-hydroxy-2-methylpropanoyl)-2-azabicyclo[3.1.1]heptan-4-yl]methanesulfonamide or N-[(3R,4R)-3-[(2,5-difluoro[biphenyl]-3-yl)methyl]-2-(2-hydroxy-2-methylpropanoyl)-2-azabicyclo[3.1.1]heptan-4-yl]methanesulfonamide]
EC50 [1]: 88 nM
ERM production potential [2]: negative

Compound: [2H]C([2H])([2H])[C@@]([2H])(O)C(=O)N1C2CC(C2)[C@H](NS(=O)(=O)CC)[C@@H]1Cc1cccc(-c2ccccc2)c1F [Example 94, N-{(3S,4S)-3-[(2-Fluoro[biphenyl]-3-yl)methyl]-2-[(2R)-2-hydroxy(^2H4)propanoyl]-2-azabicyclo[3.1.1]heptan-4-yl}ethanesulfonamide]
EC50 [1]: 22 nM
ERM production potential [2]: negative

Compound: CS(=O)(=O)N[C@H]1C2CC(C2)N(C(=O)C2(O)CCC2)[C@H]1Cc1cccc(-c2ccccc2)c1F [Example 62, N-{(3S,4S)-3-[(2-Fluoro[biphenyl]-3-yl)methyl]-2-[(1-hydroxycyclobutyl)carbonyl]-2-azabicyclo[3.1.1]heptan-4-yl}methanesulfonamide]
EC50 [1]: 14 nM
ERM production potential [2]: negative

Compound: C[C@@H](O)C(=O)N1C2CC(C2)[C@H](NS(C)(=O)=O)[C@@H]1Cc1cccc(-c2ccn(C)n2)c1F [Example 32, N-{(3S,4S)-3-[2-Fluoro-3-(1-methyl-1H-pyrazol-3-yl)benzyl]-2-[(2R)-2-hydroxypropanoyl]-2-azabicyclo[3.1.1]heptan-4-yl}methanesulfonamide]
EC50 [1]: 535 nM
ERM production potential [2]: negative

Compound: [2H]C([2H])([2H])[C@@]([2H])(O)C(=O)N1C2CC(C2)[C@H](NS(C)(=O)=O)[C@@H]1Cc1cccc(-c2ccccc2)c1F [Example 76, N-{(3S,4S)-3-[(2-Fluoro[biphenyl]-3-yl)methyl]-2-[(2R)-2-hydroxy(^2H4)propanoyl]-2-azabicyclo[3.1.1]heptan-4-yl}methanesulfonamide]
EC50 [1]: 18 nM
ERM production potential [2]: negative
metabolic stability compared to the corresponding compounds that were not deuterated [3]: improved metabolic stability
Human metabolic stability Residual ratio (%) [3]: 59%

The remaining compounds from weak to strong by EC50 [1], led by results:

EC50 [1]: 297 nM
ERM production potential [2]: negative
Compound: CC(C)(O)C(=O)N1C2CC(C2)[C@H](NS(C)(=O)=O)[C@@H]1Cc1cccc(-c2ccccc2)c1F [Example 10, N-[(3S,4S)-3-[(2-Fluoro[biphenyl]-3-yl)methyl]-2-(2-hydroxy-2-methylpropanoyl)-2-azabicyclo[3.1.1]heptan-4-yl]methanesulfonamide]

EC50 [1]: 72 nM
ERM production potential [2]: negative
Compound: CC(C)(O)C(=O)N1C2CC(F)(C2)[C@H](NS(C)(=O)=O)[C@@H]1Cc1cc(F)cc(-c2ccccc2)c1F [Example 74, N-[(3S,4R)-3-[(2,5-Difluoro[biphenyl]-3-yl)methyl]-5-fluoro-2-(2-hydroxy-2-methylpropanoyl)-2-azabicyclo[3.1.1]heptan-4-yl]methanesulfonamide]

EC50 [1]: 70 nM
ERM production potential [2]: negative
Compound: CC(C)(O)C(=O)N1C2CC(C2)C(NS(C)(=O)=O)C1Cc1cc(F)cc(-c2cccc(Cl)c2)c1F (single isomer, unassigned) [Example 67, N-[(3S,4S)-3-[(3'-Chloro-2,5-difluoro[biphenyl]-3-yl)methyl]-2-(2-hydroxy-2-methylpropanoyl)-2-azabicyclo[3.1.1]heptan-4-yl]methanesulfonamide or N-[(3R,4R)-3-[(3'-chloro-2,5-difluoro[biphenyl]-3-yl)methyl]-2-(2-hydroxy-2-methylpropanoyl)-2-azabicyclo[3.1.1]heptan-4-yl]methanesulfonamide]

EC50 [1]: 46 nM
ERM production potential [2]: negative
Compound: CC(C)(O)C(=O)N1C2CC(F)(C2)[C@H](NS(C)(=O)=O)[C@@H]1Cc1cc(F)cc(-c2cccc(Cl)c2)c1F [Example 77, N-[(3S,4R)-3-[(3'-Chloro-2,5-difluoro[biphenyl]-3-yl)methyl]-5-fluoro-2-(2-hydroxy-2-methylpropanoyl)-2-azabicyclo[3.1.1]heptan-4-yl]methanesulfonamide]

EC50 [1]: 38 nM
ERM production potential [2]: negative
Human metabolic stability Residual ratio (%) [3]: 34%
Compound: C[C@@H](O)C(=O)N1C2CC(C2)[C@H](NS(C)(=O)=O)[C@@H]1Cc1cc(F)cc(-c2ccccc2)c1F [Example 58, N-{(3S,4S)-3-[(2,5-Difluoro[biphenyl]-3-yl)methyl]-2-[(2R)-2-hydroxypropanoyl]-2-azabicyclo[3.1.1]heptan-4-yl}methanesulfonamide]

EC50 [1]: 20 nM
ERM production potential [2]: negative
Compound: [2H]C([2H])([2H])C([2H])(O)C(=O)N1C2CC(C2)C(NS(=O)(=O)CC)C1Cc1cc(F)cc(-c2ccccc2)c1F (single isomer, unassigned) [Example 92, N-{3-[(2,5-Difluoro[biphenyl]-3-yl)methyl]-2-[2-hydroxy(^2H4)propanoyl]-2-azabicyclo[3.1.1]heptan-4-yl}ethanesulfonamide]
